Data taken from patent US20210070748A1, “INHIBITORS OF BRUTONS TYROSINE KINASE” (Pharmacyclics LLC, priority 2015, published 2021).
Where a name gives a salt, the structure may show the parent alone. Read-outs that look alike come from different tables or passages of the source.

How the values were obtained:
Type in all cases: biochemical
BTK-WT = molecular target: T1, BTK-WT (Homo sapiens, UniProt Q06187); assay: Btk in vitro inhibitory activity (one of Method A TR-FRET, Method B electrophoretic mobility shift, Method C radiometric filter binding); settings: read-out: BTK-WT (IC50)
T1 construct: purified from insect cells as a full-length construct containing an N-terminal 6X-His tag; His6 (N); made in house; host or cells: insect cells (baculovirus Sf21 in Method B)

JAK3 = molecular target: T2, JAK3 (Homo sapiens, UniProt P52333); assay: Inhibition of a panel of kinases, in vitro HotSpot kinase assay: JAK3; settings: 1 μM ATP, read-out: JAK3 (IC50)
T2 sequence (P52333 1-1124): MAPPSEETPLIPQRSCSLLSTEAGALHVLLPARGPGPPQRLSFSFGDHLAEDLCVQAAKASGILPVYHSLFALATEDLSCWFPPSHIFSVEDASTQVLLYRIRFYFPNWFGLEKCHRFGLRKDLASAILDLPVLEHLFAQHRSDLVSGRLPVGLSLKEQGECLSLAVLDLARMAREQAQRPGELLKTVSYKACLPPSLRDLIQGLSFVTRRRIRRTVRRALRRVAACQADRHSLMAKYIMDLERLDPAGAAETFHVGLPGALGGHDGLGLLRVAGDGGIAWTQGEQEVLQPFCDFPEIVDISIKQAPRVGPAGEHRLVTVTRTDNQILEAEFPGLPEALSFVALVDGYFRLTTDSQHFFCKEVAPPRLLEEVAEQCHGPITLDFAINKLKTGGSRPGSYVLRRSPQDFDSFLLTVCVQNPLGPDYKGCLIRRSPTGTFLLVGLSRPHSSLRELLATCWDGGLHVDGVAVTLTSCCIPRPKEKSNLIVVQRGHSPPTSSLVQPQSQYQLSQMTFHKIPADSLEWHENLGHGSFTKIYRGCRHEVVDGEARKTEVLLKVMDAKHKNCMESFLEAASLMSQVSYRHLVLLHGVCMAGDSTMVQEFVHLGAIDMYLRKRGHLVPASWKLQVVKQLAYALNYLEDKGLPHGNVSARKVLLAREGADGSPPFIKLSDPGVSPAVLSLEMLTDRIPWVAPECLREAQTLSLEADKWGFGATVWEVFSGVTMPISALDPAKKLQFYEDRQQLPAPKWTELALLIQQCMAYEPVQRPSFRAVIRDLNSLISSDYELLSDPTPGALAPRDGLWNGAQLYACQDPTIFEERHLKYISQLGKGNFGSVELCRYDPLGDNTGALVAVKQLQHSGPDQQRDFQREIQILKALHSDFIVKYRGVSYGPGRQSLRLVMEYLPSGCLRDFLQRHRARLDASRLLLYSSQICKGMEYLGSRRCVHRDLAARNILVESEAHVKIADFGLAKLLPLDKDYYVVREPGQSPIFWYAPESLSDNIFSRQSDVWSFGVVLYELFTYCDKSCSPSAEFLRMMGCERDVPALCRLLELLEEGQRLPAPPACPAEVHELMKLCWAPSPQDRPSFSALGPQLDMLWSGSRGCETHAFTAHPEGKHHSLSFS

LCK = LCK (Homo sapiens, UniProt P06239); assay: Inhibition of a panel of kinases, in vitro HotSpot kinase assay: LCK; settings: 1 μM ATP, read-out: LCK (IC50)
Chain of LCK (P06239 whole entry): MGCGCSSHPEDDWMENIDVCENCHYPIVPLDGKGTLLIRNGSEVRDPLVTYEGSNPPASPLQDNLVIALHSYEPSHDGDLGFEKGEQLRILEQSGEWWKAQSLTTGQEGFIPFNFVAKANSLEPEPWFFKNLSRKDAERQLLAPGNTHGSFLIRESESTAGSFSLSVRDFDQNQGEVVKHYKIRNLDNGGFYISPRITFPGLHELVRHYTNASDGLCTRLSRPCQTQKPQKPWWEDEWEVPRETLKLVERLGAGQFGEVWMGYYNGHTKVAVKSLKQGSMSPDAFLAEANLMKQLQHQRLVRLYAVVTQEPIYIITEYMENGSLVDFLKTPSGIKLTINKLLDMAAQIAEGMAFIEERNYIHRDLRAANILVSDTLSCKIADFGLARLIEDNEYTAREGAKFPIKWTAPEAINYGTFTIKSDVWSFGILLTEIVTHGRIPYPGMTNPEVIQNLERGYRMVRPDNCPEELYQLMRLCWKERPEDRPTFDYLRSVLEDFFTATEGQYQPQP

T1 sequence (Q06187 whole entry): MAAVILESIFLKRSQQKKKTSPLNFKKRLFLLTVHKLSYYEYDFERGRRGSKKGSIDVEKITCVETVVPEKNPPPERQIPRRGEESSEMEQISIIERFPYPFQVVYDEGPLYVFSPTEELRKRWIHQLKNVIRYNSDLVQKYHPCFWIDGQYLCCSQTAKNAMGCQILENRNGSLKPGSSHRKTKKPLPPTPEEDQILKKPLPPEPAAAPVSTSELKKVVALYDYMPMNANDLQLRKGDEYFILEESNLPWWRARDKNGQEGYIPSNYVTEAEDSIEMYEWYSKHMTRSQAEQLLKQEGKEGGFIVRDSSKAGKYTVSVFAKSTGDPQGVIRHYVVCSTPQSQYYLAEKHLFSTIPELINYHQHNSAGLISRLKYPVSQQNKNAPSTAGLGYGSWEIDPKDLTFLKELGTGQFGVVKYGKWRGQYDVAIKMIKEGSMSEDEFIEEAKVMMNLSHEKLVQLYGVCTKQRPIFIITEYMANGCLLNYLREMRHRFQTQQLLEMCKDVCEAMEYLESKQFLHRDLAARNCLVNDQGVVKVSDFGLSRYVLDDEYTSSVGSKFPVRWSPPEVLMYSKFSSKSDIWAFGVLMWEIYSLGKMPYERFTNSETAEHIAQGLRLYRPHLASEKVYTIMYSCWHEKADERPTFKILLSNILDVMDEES

Row | Structure (SMILES) | IC50 (BTK-WT; Table 12, Formula C-I) [nM] | IC50 (JAK3; Table 12, Formula C-I) [nM] | IC50 (LCK; Table 12, Formula C-I) [nM] | IC50 (BTK-WT; Table 10, Formula A-I) [nM] | IC50 (JAK3; Table 10, Formula A-I) [nM] | IC50 (LCK; Table 10, Formula A-I) [nM]
1 | C[C@@H]1[C@H](NC(=O)N(C)C)CCCN1c1cnc(C(N)=O)c(Nc2ccc3ncccc3c2)n1 [Example A-59, 5-[(2R,3R)-3-[(dimethylcarbamoyl)amino]-2-methylpiperidin-1-yl]-3-[(quinolin-6-yl)amino]pyrazine-2-carboxamide] |  |  |  | ≤ 100 | 1000 to 10000 | 100 to 1000
2 | Cc1cc(Nc2nc(N3CCC[C@@H](NC(=O)c4ccc(C5CC5)cc4)C3)cnc2C(N)=O)sn1 [Example A-32, 5-[(3R)-3-(4-cyclopropylbenzamido)piperidin-1-yl]-3-[(3-methyl-1,2-thiazol-5-yl)amino]pyrazine-2-carboxamide] |  |  |  | ≤ 100 | 1000 to 10000 | > 10000
3 | Cc1cc(Nc2nc(N3CCC[C@@H](NC(=O)c4ccccc4F)C3)cnc2C(N)=O)sn1 [Example A-23, 5-[(3R)-3-(2-fluorobenzamido)piperidin-1-yl]-3-[(3-methyl-1,2-thiazol-5-yl)amino]pyrazine-2-carboxamide] |  |  |  | ≤ 100 | 100 to 1000 | 100 to 1000
4 | CN(C)c1ccc(C(=O)N[C@@H]2CCCN(c3cnc(C(N)=O)c(Nc4ccc5ncccc5c4)n3)C2)cc1 [Example A-46, 5-[(3R)-3-[4-(dimethylamino)benzamido]piperidin-1-yl]-3-[(quinolin-6-yl)amino]pyrazine-2-carboxamide hydrochloride] |  |  |  | ≤ 100 | 1000 to 10000 | > 10000
5 | Cc1cc(Nc2nc(N3CCC[C@@H](NC(=O)C4CCCCC4)C3)cnc2C(N)=O)sn1 [Example A-28, 5-[(3R)-3-cyclohexaneamidopiperidin-1-yl]-3-[(3-methyl-1,2-thiazol-5-yl)amino]pyrazine-2-carboxamide] |  |  |  | ≤ 100 | 1000 to 10000 | 100 to 1000
6 | NC(=O)c1ncc(N2CCC[C@@H](NC(=O)Nc3ccccc3)C2)nc1Nc1ccc(C2CCN(C3CCCC3)CC2)cc1 [Example A-2, 3-{[4-(1-cyclopentylpiperidin-4-yl)phenyl]amino}-5-[(3R)-3-[(phenylcarbamoyl)amino]piperidin-1-yl]pyrazine-2-carboxamide hydrochloride] |  |  |  | ≤ 100 | 100 to 1000 | < 100
7 | Cc1cc(Nc2nc(N3CCC[C@@H](NC(=O)c4ccc(F)cc4)C3)cnc2C(N)=O)sn1 [Example A-20, 5-[(3R)-3-(4-fluorobenzamido)piperidin-1-yl]-3-[(3-methyl-1,2-thiazol-5-yl)amino]pyrazine-2-carboxamide] |  |  |  | ≤ 100 | > 10000 | 100 to 1000
8 | Cc1cccc(NC(=O)N[C@@H]2CCCN(c3cnc(C(N)=O)c(Nc4ccc(C5CCN(C6CCCC6)CC5)cc4)n3)C2)c1 [Example A-4, 3-{[4-(1-cyclopentylpiperidin-4-yl)phenyl]amino}-5-[(3R)-3-{[(3-methylphenyl)carbamoyl]amino}piperidin-1-yl]pyrazine-2-carboxamide hydrochloride] |  |  |  | ≤ 100 | 100 to 1000 | < 100
9 | Cc1cc(Nc2nc(N3CCC[C@@H](NC(=O)c4ccc(C(C)C)cc4)C3)cnc2C(N)=O)sn1 [Example A-30, 3-[(3-methyl-1,2-thiazol-5-yl)amino]-5-[(3R)-3-[4-(propan-2-yl)benzamido]piperidin-1-yl]pyrazine-2-carboxamide] |  |  |  | ≤ 100 | 1000 to 10000 | > 10000
10 | C=CC(=O)N[C@@H]1CCCN(c2cnc(C(N)=O)c(Nc3ccc(C4CCN(C5CCCC5)CC4)cc3)n2)[C@@H]1C [Example A-85, 5-((2R,3R)-3-acrylamido-2-methylpiperidin-1-yl)-3-(4-(1-cyclopentylpiperidin-4-yl)phenylamino)pyrazine-2-carboxamide] |  |  |  | ≤ 100 | < 100 | < 100
11 | Cc1cc(Nc2nc(N3CCC(CNC(=O)c4ccc(N(C)C)cc4)CC3)cnc2C(N)=O)sn1 [Example A-77, 5-[4-({[4-(dimethylamino)phenyl]formamido}methyl)piperidin-1-yl]-3-[(3-methyl-1,2-thiazol-5-yl)amino]pyrazine-2-carboxamide] |  |  |  | ≤ 100 | < 100 | 100 to 1000
12 | Cc1cc(Nc2nc(N3CCC(CNC(=O)c4ccccc4)CC3)cnc2C(N)=O)sn1 [Example A-76, 3-[(3-methyl-1,2-thiazol-5-yl)amino]-5-{4-[(phenylformamido)methyl]piperidin-1-yl}pyrazine-2-carboxamide] |  |  |  | ≤ 100 | < 100 | 100 to 1000
13 | Cc1cc(Nc2nc(N3CCC[C@@H](NC(=O)Nc4ncc(C)s4)C3)cnc2C(N)=O)sn1 [Example A-12] |  |  |  | 100 to 1000 | 1000 to 10000 | 1000 to 10000
14 | C=CC(=O)N[C@@H]1CCCN(c2cnc(C(N)=O)c(Nc3ccc(C4CCN(C5CCCC5)CC4)cc3)n2)C1 [Example A-84, (R)-5-(3-acrylamidopiperidin-1-yl)-3-(4-(1-cyclopentylpiperidin-4-yl)phenylamino)pyrazine-2-carboxamide] |  |  |  | ≤ 100 | < 100 | < 100
15 | Cc1cc(Nc2nc(N3CCC[C@@H](NC(=O)N4Cc5ccccc5C4)C3)cnc2C(N)=O)sn1 [Example A-17, N-[(3R)-1-{5-carbamoyl-6-[(3-methyl-1,2-thiazol-5-yl)amino]pyrazin-2-yl}piperidin-3-yl]-2,3-dihydro-1H-isoindole-2-carboxamide] |  |  |  | ≤ 100 | 100 to 1000 | 100 to 1000
16 | CS(=O)(=O)c1ccc(Nc2nc(N3CCC[C@@H](N4CCN(c5cccc(Cl)c5)C4=O)C3)cnc2C(N)=O)cc1 [Example A-53, 5-[(3R)-3-[3-(3-chlorophenyl)-2-oxoimidazolidin-1-yl]piperidin-1-yl]-3-[(4-methanesulfonylphenyl)amino]pyrazine-2-carboxamide] |  |  |  | ≤ 100 | 1000 to 10000 | < 100

More lines, now with the values ahead:

Row | IC50 (BTK-WT; Table 12, Formula C-I) [nM] | IC50 (JAK3; Table 12, Formula C-I) [nM] | IC50 (LCK; Table 12, Formula C-I) [nM] | IC50 (BTK-WT; Table 10, Formula A-I) [nM] | IC50 (JAK3; Table 10, Formula A-I) [nM] | IC50 (LCK; Table 10, Formula A-I) [nM] | Structure (SMILES)
17 | > 10000 | > 10000 | > 10000 |  |  |  | Cc1cc(Nc2nc(N[C@@H]3CCCN(C(=O)c4ccc(N(C)C)cc4)C3)cnc2C(N)=O)sn1 [Example C-7, 5-{[(3R)-1-[4-(dimethylamino)benzoyl]piperidin-3-yl]amino}-3-[(3-methyl-1,2-thiazol-5-yl)amino]pyrazine-2-carboxamide hydrochloride]
18 | 100 to 1000 | 1000 to 10000 | 1000 to 10000 |  |  |  | Cc1cc(Nc2nc(N(C)[C@H]3CCCN(C(=O)N(C)C)C3)cnc2C(N)=O)sn1 [Example C-8, 5-([(3S)-1-(dimethylcarbamoyl)piperidin-3-yl](methyl)amino)-3-[(3-methyl-1,2-thiazol-5-yl)amino]pyrazine-2-carboxamide]
19 | 1000 to 10000 | > 10000 | > 10000 |  |  |  | Cc1cc(Nc2nc(N[C@H]3CCCN(C(=O)c4ccccc4)C3)cnc2C(N)=O)sn1 [Example C-6, 5-{[(3S)-1-benzoylpiperidin-3-yl]amino}-3-[(3-methyl-1,2-thiazol-5-yl)amino]pyrazine-2-carboxamide]
20 | 100 to 1000 | 100 to 1000 | 100 to 1000 |  |  |  | Cc1cc(Nc2nc(N[C@@H]3CCN(C(=O)N(C)C)C3)cnc2C(N)=O)sn1 [Example C-12, 5-([(3R)-1-(dimethylcarbamoyl)pyrrolidin-3-yl]amino)-3-[(3-methyl-1,2-thiazol-5-yl)amino]pyrazine-2-carboxamide]
21 | ≤ 100 | < 100 | > 10000 |  |  |  | C=CC(=O)N1CC[C@H](Nc2nnc(C(N)=O)c(Nc3cccc(C(=O)Nc4ccc(C(C)C)c(C)c4)c3)n2)C1 [Example C-29, (S)-3-(1-acryloylpyrrolidin-3-ylamino)-5-(3-(4-isopropyl-3-methylphenyl-carbamoyl)phenyl-amino)-1,2,4-triazine-6-carboxamide]
22 | 100 to 1000 | 1000 to 10000 | 1000 to 10000 |  |  |  | Cc1cc(Nc2nc(N(C)CC3CCN(C(=O)c4ccccc4)CC3)cnc2C(N)=O)sn1 [Example C-15, 5-{[(1-benzoylpiperidin-4-yl)methyl](methyl)amino}-3-[(3-methyl-1,2-thiazol-5-yl)amino]pyrazine-2-carboxamide]
